Patent publication US9834514B2, “Antibiotic sensitivity-restoring and photosensitive agents” (New Mexico Tech Research Foundation, priority 2015, dated 2017)
≈ marks a conversion by molar mass, not a printed value.

Columns and labels:
[1] = tested on: VRE; test: Resensitization to antibiotics (log reduction, TABLE 29); assay type: cell-based, Enterococcus faecalis; details: compound 2 μM
[2] = tested on: P. aeruginosa; test: MIC against P. aeruginosa; assay type: cell-based; details: Pseudomonas aeruginosa, read-out: MIC
Text: Only compound 1 was able to decrease the CFU/mL when used in conjunction with white light to treat P. aeruginosa.

[3] = tested on: A. baumannii (ATCC 15151); test: Time course of colony counts with compounds and PME or PMB; assay type: cell-based; details: 0.2 μg/mL of PME, compound 5 μM; FIGS. 50, 52
Protocol: The MICs of PME and compounds 8-11 were determined against A. baumannii (ATCC 15151). […] After incubating the cells with PME, a compound (5 μM) was added, and the samples were further incubated at 37° C. At specific time points, samples were taken and diluted ten-fold in media. Ten microliters of each dilution was then drip-streaked onto an agar plate and incubated overnight at 37° C. Colony counts were then performed, and the CFU/mL were calculated.

[4] = tested on: drug-resistant bacteria; test: Summary of synergistic activities with antibiotic families (TABLE 45); assay type: cell-based; details: for Synergy with Oxacillin (β-lactama): *indicated ampicillin, dicloxicillin and Penicillin G
Text: TABLE 45 summarizes the synergistic activities of the seven classes of clinically used antibiotics and compounds of the invention against a variety of different drug-resistant bacteria.

[5] = tested on: Klebsiella pneumoniae (CRE, ATCC BAA-1705); test: MIC against CRE; assay type: cell-based; details: Klebsiella pneumoniae, ATCCBAA1705
Protocol: TABLE 27 details the individual MIC values of compounds 1, 7, 8, 9, 10, 11, PMB, PME, and light against CRE.
The MICs of PME and compounds 8-11 were determined against Klebsiella pneumoniae (CRE, ATCC BAA-1705). […] After the incubation with PME, the compounds were added at a concentration of 20 μM, and the samples were further incubated. At specific time points, the samples were taken and diluted ten-fold in media. Ten microliters of each dilution was then drip-streaked onto an agar plate and incubated overnight at 37° C. Colony counts were then performed and the CFU/mL were calculated.

[6] = tested on: WI38 cells; test: Toxicity (IC50) on WI38 cells; assay type: cell-based; details: Homo sapiens, WI-38; normal lung fibroblast WI38 cells
Protocol: The toxicities of the compounds of the invention were determined for human cancerous cervical epithelium HeLa and normal lung fibroblast WI38 cells. The toxicities of EPIs INF-55 and INF-55Cl were quantified as controls. […] TABLE 2 compares the toxicity of compounds 7-11 on HeLa cells and normal WI38 cells.

[7] = tested on: S. aureus (ATCC 29213); test: microbe, parasite or virus in culture; assay type: cell-based; details: for MIC: Staphylococcus aureus, ATCC29213, read-out: Final MIC Apr. 16, 2015
Protocol: Each mixture was incubated at 37° C. on a rotary shaking incubator for about 16 hours. MTT was then added to assess the viability of the cells (at 10% well volume). […] The cells were then streaked onto a TSA plate and incubated overnight at 37° C. These steps were repeated to reach a total of 30 exposures.

[8] = tested on: A. baumannii; test: Resensitization to antibiotics (log reduction, TABLE 29); assay type: cell-based; details: compound 5 μM; PME (0.2 μg/mL)
[9] = tested on: MRSA (ATCC No. BAA-44; ATCC No. BAA-1717); test: Light-activated killing (photodynamic therapy), colony counts; assay type: cell-based, S. aureus; details: FIG. 4
Protocol: Bacterial media was inoculated with bacteria and incubated overnight. The bacterial cultures were diluted to 5×10^8 CFU/mL using a McFarland latex turbidity standard (0.5). Compound 1 was diluted with sterile DMSO, which was added to the cell suspension in a glass culture tube. The cells were then incubated for 30 minutes at 37° C. on a rotary shaking incubator at 150 rpm. 500 μL of the treated cell suspension was added to a well on a sterile ceramic drop plate. Non-coherent white light from a Lumacare™ LC-122 unit was used to irradiate the samples. The end of the light probe was placed 3 cm above the sample well, perpendicular to the surface of the sample, and light was applied for 2 minutes (15 seconds light, 15 seconds dark). 200 μL of the irradiated sample was transferred to a 96-well plastic microtiter plate, and five ten-fold dilutions were made in the media. 10 μL of each dilution was dripped onto an agar media plate and streaked down the plate by tilting the plate down. The agar plates were incubated at 37° C. overnight, and colony counts were performed to calculate the CFU/mL.
Dose-dependent effects of treating bacteria with compound 1 and irradiation with white light were assessed by treating 10^8 CFU/mL of cells with compound 1, followed by irradiation with white light for 2 minutes. Compound 1 was added at a specific concentration to 1 mL of a 10^8 CFU/mL suspension of the respective bacterial cells, and the cells were incubated at 37° C. for approximately 45 minutes on a rotary shaker at 150 rpm. 0.5 mL of the cell suspension was removed and placed into the wells of a sterile ceramic drop plate, and then the cells were irradiated with white light from a Lumacare™ LC 122A light source for 2 minutes at a distance of approximately 3 cm. The time and distance of the light application delivered about 85 J/cm^2 of 400-700 nm light to the sample. After being irradiated, ten-fold dilutions were made of each cell sample. The dilutions were drip-streaked onto a tryptic soy agar (TSA) plate and incubated at 37° C. for 18-24 hours. Enumeration of bacteria was determined from the dilution, which produced a drip-streak containing approximately 30-300 colonies. After counting the colonies, the CFU/mL was calculated by applying the respective dilution factor and a factor of 100 to account for the 10 μL of sample taken. Appropriate controls were prepared, including cells with no treatment, cells with only compound 1 added, and cells only treated with light.

| SMILES | MIC [2] | A. baumannii colony populations on treatment with compound and PME [3] | Synergy with Polymyxin B (Polypeptides) ([4]; A. baumannii ATCC 15151) | Synergy with Polymyxin E (Polypeptides) ([4]; A. baumannii ATCC 15151) | Synergy with Polymyxin B (Polypeptides) ([4]; CRE ATCC 1705) | Synergy with Polymyxin E (Polypeptides) ([4]; CRE ATCC 1705) | Synergy with Polymyxin B (Polypeptides) ([4]; CRE ATCC 2340) | Synergy with Polymyxin E (Polypeptides) ([4]; CRE ATCC 2340) | Synergy with Polymyxin B (Polypeptides) ([4]; CRE ATCC 2341) | Synergy with Polymyxin E (Polypeptides) ([4]; CRE ATCC 2341) | Synergy with Polymyxin B (Polypeptides) ([4]; CRE ATCC 2342) | Synergy with Polymyxin E (Polypeptides) ([4]; CRE ATCC 2342) | Synergy with Norfioxacin (Fluoroquinolones) ([4]; MRSA ATCC BAA-44) | Synergy with Oxacillin (β-lactama) ([4]; MRSA ATCC BAA-44) | Synergy with Polymyxin B (Polypeptides) ([4]; P. aeruginosa ATCC 27853) | Synergy with Polymyxin E (Polypeptides) ([4]; P. aeruginosa ATCC 27853) | Synergy with Norfioxacin (Fluoroquinolones) ([4]; VRE ATCC 51299) | Synergy with Tetracycline (Tetracyclines) ([4]; VRE ATCC 51299) | Synergy with Vancomycin (Glycopeptides) ([4]; VRE ATCC 51299) | MIC [5] | also measured |
| --- | --- | --- | --- | --- | --- | --- | --- | --- | --- | --- | --- | --- | --- | --- | --- | --- | --- | --- | --- | --- | --- |
| Clc1ccc(Oc2c(-c3ccc(Cl)cc3)[nH]c3ccccc23)cc1 [Compound 10] | > 100 µM | reduced to sterility | Synergy | Synergy | Synergy | Synergy | Synergy | Synergy | Synergy | Synergy | Synergy | Synergy | Synergy | Synergy* | Synergy | Synergy | Synergy | Synergy | Synergy | > 100 µM | Log Reduction ([1]; Dicloxacillin (10 μg/mL)): 5; Log Reduction ([1]; Norfloxacin (5 μg/mL)): 5-6; Synergy with β-lactama (Oxacillin column; cell says dicloxicillin) ([4]; VRE ATCC 51299, dicloxicillin): Synergy; IC50 [6]: 54.8 µM; Resistance Evolved [7]: No; MIC [7]: 16 to 32 µM (≈ 5.67 to 11.3 µg/mL); Log Reduction [8]: 8 |
| Clc1ccc(/N=N/c2c[nH]c3ccccc23)cc1 [Compound 9] | > 100 µM | reduced to sterility | Synergy | Synergy | Synergy | Synergy | Synergy | Synergy | Synergy | Synergy | Synergy | Synergy | Synergy | Synergy* | Synergy | Synergy | Synergy | Synergy | Synergy | > 100 µM | appearance of MRSA cells in SEM image ([9]; compound 9 alone, no light): undamaged; appearance of MRSA cells in SEM image ([9]; compound 9 at 25 uM and light (LumaCare)): appear to have burst from the inside; IC50 [6]: 61.9 µM; Resistance Evolved [7]: No; MIC [7]: 8 µM (≈ 2.05 µg/mL); Log Reduction [8]: 8 |
